Measured values from paper PMC6166781 (Nature structural & molecular biology, 2017).
Where a chain is given by its changes, count along the chain named.

Experiments:
GABAAR heteromers = settings: cited from earlier work
α1β3L297Aγ2 GABAAR = α1β3L297Aγ2 GABAAR (Homo sapiens, UniProt P14867+P28472, L322A); format: cell-based; settings: for loss of sensitivity to potentiation versus wild type: L297A vs WT
[1] = target: T1, α5TMD T287K (chimeric GABAAR, β3 subunit ECD fused to α5 subunit TMD) (Homo sapiens, UniProt P28472, A271S/A273P/A277V/D270E/DELINS289-473[…]/I247V/I257T/I267L/I280V/L248I/L256M/L278F/M252L/S254C/S272V/T258V/V276T/W262Q/Y269R); format: cell-based; settings: T287K background; n = 6
T1 sequence (P28472 with tags, fused parts or gaps I247V/L248I/M252L/S254C/L256M/I257T/T258V/W262Q/I267L/Y269R/D270E/A271S/S272V/A273P/V276T/A277V/L278F/I280V): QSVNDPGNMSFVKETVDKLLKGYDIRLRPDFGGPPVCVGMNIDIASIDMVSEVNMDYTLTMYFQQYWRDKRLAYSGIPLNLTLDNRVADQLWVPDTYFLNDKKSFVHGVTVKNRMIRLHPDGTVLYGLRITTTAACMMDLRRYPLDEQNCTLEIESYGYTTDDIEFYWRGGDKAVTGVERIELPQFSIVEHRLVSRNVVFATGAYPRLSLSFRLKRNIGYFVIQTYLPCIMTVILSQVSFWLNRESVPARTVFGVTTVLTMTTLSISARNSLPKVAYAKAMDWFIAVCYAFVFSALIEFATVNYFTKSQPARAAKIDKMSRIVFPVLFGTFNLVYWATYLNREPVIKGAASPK

[2] = target: T2, α5TMD T287K (chimeric GABAAR, β3 subunit ECD fused to α5 subunit TMD) (Homo sapiens, UniProt P28472, A271S/A273P/A277V/D270E/DELINS289-473LSISARNSLPKVAYAKAMDWFIAVCYAFVFSALIEFATVNYFTKSQPARAAKIDKMSRIVFPVLFGTFNLVYWATYLNREPVIKGAASPK/I247V/I257T/I267L/I280V/L248I/L256M/L278F/M252L/S254C/S272V/T258V/V276T/W262Q/Y269R); format: cell-based; settings: EC50 of potentiation of histamine EC10-15 responses, Fig. 1e; n = 6
T2 sequence (P28472 with tags, fused parts or gaps I247V/L248I/M252L/S254C/L256M/I257T/T258V/W262Q/I267L/Y269R/D270E/A271S/S272V/A273P/V276T/A277V/L278F/I280V): T1 sequence (P28472 with tags, fused parts or gaps I247V/L248I/M252L/S254C/L256M/I257T/T258V/W262Q/I267L/Y269R/D270E/A271S/S272V/A273P/V276T/A277V/L278F/I280V)

α5TMD Q245W = target: T3, α5TMD Q245W (Homo sapiens, UniProt P28472, A271S/A273P/A277V/D270E/DELINS289-473LSISARNSLPKVAYATAMDWFIAVCYAFVFSALIEFATVNYFTKSQPARAAKIDKMSRIVFPVLFGTFNLVYWATYLNREPVIKGAASPK/I247V/I257T/I267L/I280V/L248I/L256M/L278F/M252L/S254C/S272V/T258V/V276T/Y269R); experiment: Thermostability binding experiment
T3 sequence (P28472 with tags, fused parts or gaps I247V/L248I/M252L/S254C/L256M/I257T/T258V/I267L/Y269R/D270E/A271S/S272V/A273P/V276T/A277V/L278F/I280V): T1 sequence (P28472 with tags, fused parts or gaps I247V/L248I/M252L/S254C/L256M/I257T/T258V/W262Q/I267L/Y269R/D270E/A271S/S272V/A273P/V276T/A277V/L278F/I280V) with Q237W, K279T

α1β3F301Aγ2 GABAAR = α1β3F301Aγ2 GABAAR (Homo sapiens, UniProt P14867+P28472, F326A); format: cell-based
α5TMD [3] = target: T4, α5TMD (Homo sapiens, UniProt P28472+P31644, DEL351-357/DEL363-425/E358R/G348Q/K256N/R347S/W349P); experiment: Thermostability binding experiment
T4 sequence (P28472+P31644 with tags, fused parts or gaps P31644:K256N/P31644:R347S/P31644:G348Q/P31644:W349P/P31644:DEL351-357/P31644:E358R/P31644:DEL363-425): T1 sequence (P28472 with tags, fused parts or gaps I247V/L248I/M252L/S254C/L256M/I257T/T258V/W262Q/I267L/Y269R/D270E/A271S/S272V/A273P/V276T/A277V/L278F/I280V) with K279T

α1β3γ2 GABAAR = α1β3γ2 GABAAR (Homo sapiens, UniProt P14867+P28472); format: cell-based
α5TMD T287K W249L = target: T5, α5TMD T287K W249L (Homo sapiens, UniProt P28472, A271S/A273P/A277V/D270E/DELINS289-473LSISARNSLPKVAYAKAMDWFIAVCYAFVFSALIEFATVNYFTKSQPARAAKIDKMSRIVFPVLFGTFNLVYWATYLNREPVIKGAASPK/I247V/I257T/I267L/I280V/L248I/L256M/L278F/M252L/S254C/S272V/T258V/V276T/W262Q/W266L/Y269R); format: cell-based
T5 sequence (P28472 with tags, fused parts or gaps I247V/L248I/M252L/S254C/L256M/I257T/T258V/W262Q/W266L/I267L/Y269R/D270E/A271S/S272V/A273P/V276T/A277V/L278F/I280V): T1 sequence (P28472 with tags, fused parts or gaps I247V/L248I/M252L/S254C/L256M/I257T/T258V/W262Q/I267L/Y269R/D270E/A271S/S272V/A273P/V276T/A277V/L278F/I280V) with W241L

α5TMD T287K Q245L = target: T6, α5TMD T287K Q245L (Homo sapiens, UniProt P28472, A271S/A273P/A277V/D270E/DELINS289-473[…]/I247V/I257T/I267L/I280V/L248I/L256M/L278F/M252L/S254C/S272V/T258V/V276T/W262L/Y269R); format: cell-based; settings: leucine substitution of M1 Gln245
T6 sequence (P28472 with tags, fused parts or gaps I247V/L248I/M252L/S254C/L256M/I257T/T258V/W262L/I267L/Y269R/D270E/A271S/S272V/A273P/V276T/A277V/L278F/I280V): T1 sequence (P28472 with tags, fused parts or gaps I247V/L248I/M252L/S254C/L256M/I257T/T258V/W262Q/I267L/Y269R/D270E/A271S/S272V/A273P/V276T/A277V/L278F/I280V) with Q237L

α5TMD T287K T309A = target: T7, α5TMD T287K T309A (Homo sapiens, UniProt P28472, A271S/A273P/A277V/D270E/DELINS289-473LSISARNSLPKVAYAKAMDWFIAVCYAFVFSALIEFAAVNYFTKSQPARAAKIDKMSRIVFPVLFGTFNLVYWATYLNREPVIKGAASPK/I247V/I257T/I267L/I280V/L248I/L256M/L278F/M252L/S254C/S272V/T258V/V276T/W262Q/Y269R); format: cell-based
T7 sequence (P28472 with tags, fused parts or gaps I247V/L248I/M252L/S254C/L256M/I257T/T258V/W262Q/I267L/Y269R/D270E/A271S/S272V/A273P/V276T/A277V/L278F/I280V): T1 sequence (P28472 with tags, fused parts or gaps I247V/L248I/M252L/S254C/L256M/I257T/T258V/W262Q/I267L/Y269R/D270E/A271S/S272V/A273P/V276T/A277V/L278F/I280V) with T301A

α5TMD Q245L = target: T8, α5TMD Q245L (Homo sapiens, UniProt P28472, A271S/A273P/A277V/D270E/DELINS289-473LSISARNSLPKVAYATAMDWFIAVCYAFVFSALIEFATVNYFTKSQPARAAKIDKMSRIVFPVLFGTFNLVYWATYLNREPVIKGAASPK/I247V/I257T/I267L/I280V/L248I/L256M/L278F/M252L/S254C/S272V/T258V/V276T/W262L/Y269R); experiment: Thermostability binding experiment
T8 sequence (P28472 with tags, fused parts or gaps I247V/L248I/M252L/S254C/L256M/I257T/T258V/W262L/I267L/Y269R/D270E/A271S/S272V/A273P/V276T/A277V/L278F/I280V): T1 sequence (P28472 with tags, fused parts or gaps I247V/L248I/M252L/S254C/L256M/I257T/T258V/W262Q/I267L/Y269R/D270E/A271S/S272V/A273P/V276T/A277V/L278F/I280V) with Q237L, K279T

α5TMD [4] = target: T4, α5TMD; experiment: Whole-cell patch-clamp of α5TMD in transfected HEK-293T cells; format: cell-based

CC(=O)[C@H]1CC[C@H]2[C@@H]3CC[C@@H]4C[C@@H](O)CC[C@]4(C)[C@H]3CC[C@]12C [epipregnanolone]
potentiation of GABAAR heteromers (qualitative) (GABAAR heteromers): weak potentiator

CC(=O)[C@H]1CC[C@H]2[C@@H]3CC[C@@H]4C[C@H](O)CC[C@]4(C)[C@H]3CC[C@]12C [pregnanolone]
EC50 (α1β3L297Aγ2 GABAAR): 2500 ± 200 nM | loss of sensitivity to potentiation versus wild type (α1β3L297Aγ2 GABAAR): 10 fold | potentiation of submaximal (EC10-15) histamine doses [1]: 325 ± 104% | EC50 [2]: 1300 ± 100 nM | EC50 (α5TMD Q245W): > 30000 nM | EC50 (α1β3F301Aγ2 GABAAR): 280 ± 40 nM | EC50 (α5TMD [3]): 5500 ± 300 nM | EC50 (α1β3γ2 GABAAR): 240 ± 20 nM | EC50 (α5TMD T287K W249L): > 10000 nM | potentiation of histamine EC10-15 responses (α5TMD T287K Q245L): ablated | EC50 (α5TMD T287K T309A): 2200 ± 300 nM | EC50 (α5TMD Q245L): > 30000 nM

NCCc1c[nH]cn1 [histamine]
agonist effect on receptor current (α5TMD [4]; Fig. 1a): activated and then desensitised

CC(=O)[C@H]1CC[C@H]2[C@@H]3CC[C@H]4C[C@H](O)CC[C@]4(C)[C@H]3CC[C@]12C [allopregnanolone]
EC50 (α1β3L297Aγ2 GABAAR): 1600 ± 200 nM | loss of sensitivity to potentiation versus wild type (α1β3L297Aγ2 GABAAR): 5 fold | EC50 (α1β3F301Aγ2 GABAAR): 260 ± 60 nM | EC50 (α1β3γ2 GABAAR): 280 ± 40 nM

picrotoxin
effect on spontaneous inward leak current (α5TMD [4]; Fig. 1b): blocks a spontaneous inward leak current
